{"source": "ChEMBL document CHEMBL2157897", "about": "“Meso-tetrakis(p-sulfonatophenyl)N-confused porphyrin tetrasodium salt: a potential sensitizer for photodynamic therapy” (J Med Chem, 2012)", "key": {"[1]": {"tested_on": "HeLa", "test": "Photocytotoxicity against human HeLa cells preincubated for 1 hr prior to illumination measured after 24 hrs post illumination by MTT assay", "type": "functional, cell-based"}, "[2]": {"tested_on": "SiHa", "test": "Photocytotoxicity against human SiHa cells preincubated for 1 hr prior to illumination measured after 24 hrs post illumination by MTT assay", "type": "functional, cell-based"}, "[3]": {"test": "Photocytotoxicity against human SCC131 cells preincubated for 1 hr prior to illumination measured after 24 hrs post illumination by MTT assay", "type": "functional, cell-based"}, "[4]": {"test": "Photocytotoxicity against human SCC172 cells preincubated for 1 hr prior to illumination measured after 24 hrs post illumination by MTT assay", "type": "functional, cell-based"}, "[5]": {"tested_on": "MIA PaCa-2", "test": "Photocytotoxicity against human MIAPaCa2 cells preincubated for 1 hr prior to illumination measured after 24 hrs post illumination by MTT assay", "type": "functional, cell-based"}, "[6]": {"tested_on": "HCT-116", "test": "Photocytotoxicity against human HCT116 cells preincubated for 1 hr prior to illumination measured after 24 hrs post illumination by MTT assay", "type": "functional, cell-based"}, "[7]": {"tested_on": "MCF7", "test": "Photocytotoxicity against human MCF7 cells preincubated for 1 hr prior to illumination measured after 24 hrs post illumination by MTT assay", "type": "functional, cell-based"}, "[8]": {"tested_on": "MDA-MB-231", "test": "Photocytotoxicity against human MDA-MB-231 cells preincubated for 1 hr prior to illumination measured after 24 hrs post illumination by MTT assay", "type": "functional, cell-based"}, "[9]": {"tested_on": "MDA-MB-231", "test": "Induction of ROS generation in human MDA-MB-231 cells using CM-H2DCFDA as probe after 24 hrs post photoirradiation by FACS flow cytometry", "type": "functional, cell-based"}, "[10]": {"tested_on": "MDA-MB-231", "test": "Induction of ROS generation in human MDA-MB-231 cells using CM-H2DCFDA as probe at 6 uM after 24 hrs post photoirradiation by FACS flow cytometry (reference value: 13.7 +/- 2.3 %)", "type": "functional"}, "[11]": {"tested_on": "MDA-MB-231", "test": "Induction of ROS generation in human MDA-MB-231 cells using CM-H2DCFDA as probe at 12 uM after 24 hrs post photoirradiation by FACS flow cytometry (reference value: 13.7 +/- 2.3 %)", "type": "functional"}, "[12]": {"tested_on": "HeLa", "test": "Cytotoxicity against human HeLa cells assessed as cell viability at 10 to 50 uM after 24 hrs by MTT assay in absence of light", "type": "cell-based"}, "[13]": {"tested_on": "SiHa", "test": "Cytotoxicity against human SiHa cells assessed as cell viability at 10 to 50 uM after 24 hrs by MTT assay in absence of light", "type": "cell-based"}, "[14]": {"test": "Cytotoxicity against human SCC131 cells assessed as cell viability at 10 to 50 uM after 24 hrs by MTT assay in absence of light", "type": "cell-based", "conditions": "scc131, 24 h"}, "[15]": {"test": "Cytotoxicity against human SCC172 cells assessed as cell viability at 10 to 50 uM after 24 hrs by MTT assay in absence of light", "type": "cell-based", "conditions": "scc172, 24 h"}, "[16]": {"tested_on": "MIA PaCa-2", "test": "Cytotoxicity against human MIAPaCa2 cells assessed as cell viability at 10 to 50 uM after 24 hrs by MTT assay in absence of light", "type": "cell-based", "conditions": "mia paca-2, 24 h"}, "[17]": {"tested_on": "HCT-116", "test": "Cytotoxicity against human HCT116 cells assessed as cell viability at 10 to 50 uM after 24 hrs by MTT assay in absence of light", "type": "cell-based", "conditions": "hct-116, 24 h"}, "[18]": {"tested_on": "MCF7", "test": "Cytotoxicity against human MCF7 cells assessed as cell viability at 10 to 50 uM after 24 hrs by MTT assay in absence of light", "type": "cell-based", "conditions": "mcf7, 24 h"}, "[19]": {"tested_on": "MDA-MB-231", "test": "Cytotoxicity against human MDA-MB-231 cells assessed as cell viability at 10 to 50 uM after 24 hrs by MTT assay in absence of light", "type": "cell-based", "conditions": "mda-mb-231, 24 h"}, "[20]": {"tested_on": "MDA-MB-231", "test": "Ratio of IC50 for human HeLa cells to IC50 for human MDA-MB-231 cells", "type": "functional"}, "[21]": {"tested_on": "MDA-MB-231", "test": "Induction of apoptosis in human MDA-MB-231 cells assessed as early apoptotic cells at 6 uM preincubated for 1 hr followed by photoirradiation by annexin V-FITC/propidium iodide staining based flow cytometry (reference value: 3.5 +/- 0.41 %)", "type": "functional"}, "[22]": {"tested_on": "MDA-MB-231", "test": "Induction of apoptosis in human MDA-MB-231 cells assessed as early apoptotic cells at 12 uM preincubated for 1 hr followed by photoirradiation by annexin V-FITC/propidium iodide staining based flow cytometry (reference value: 3.5 +/- 0.41 %)", "type": "functional"}, "[23]": {"tested_on": "MDA-MB-231", "test": "Induction of apoptosis in human MDA-MB-231 cells at 12 uM after 1 hr by annexin V-FITC/propidium iodide staining based flow cytometry in absence of light", "type": "cell-based", "conditions": "mda-mb-231, 1 h"}, "[24]": {"tested_on": "MDA-MB-231", "test": "Induction of apoptosis in human MDA-MB-231 cells assessed as chromatin condensation at 6 uM preincubated for 1 hr followed by photoirradiation measured after 24 hrs by Hoechst staining based fluorescence microscopy (reference value: 10.4 +/- 1.5 %)", "type": "functional"}, "[25]": {"tested_on": "MDA-MB-231", "test": "Induction of apoptosis in human MDA-MB-231 cells assessed as chromatin condensation at 12 uM preincubated for 1 hr followed by photoirradiation measured after 24 hrs by Hoechst staining based fluorescence microscopy (reference value: 10.4 +/- 1.5 %)", "type": "functional"}, "[26]": {"tested_on": "MDA-MB-231", "test": "Induction of apoptosis in human MDA-MB-231 cells assessed as chromatin condensation preincubated for 1 hr followed by photoirradiation measured after 24 hrs by Hoechst staining based fluorescence microscopy", "type": "functional, cell-based"}, "[27]": {"tested_on": "MDA-MB-231", "test": "Induction of apoptosis in human MDA-MB-231 cells assessed as decrease in mitochondrial membrane potential at 6 uM preincubated for 1 hr followed by photoirradiation measured after 24 hrs by JC1 staining based fluorescence microscopy (reference value: 12.1 +/- 4.9 %)", "type": "functional", "parameters": "scale not given: the % may be the effect or the level left"}, "[28]": {"tested_on": "MDA-MB-231", "test": "Induction of apoptosis in human MDA-MB-231 cells assessed as decrease in mitochondrial membrane potential at 12 uM preincubated for 1 hr followed by photoirradiation measured after 24 hrs by JC1 staining based fluorescence microscopy (reference value: 12.1 +/- 4.9 %)", "type": "functional", "parameters": "scale not given: the % may be the effect or the level left"}, "[29]": {"tested_on": "MDA-MB-231", "test": "Induction of apoptosis in human MDA-MB-231 cells assessed as PARP cleavage at 12 uM after 1 hr by immunoblotting in absence of light", "type": "cell-based", "conditions": "mda-mb-231, 1 h"}, "[30]": {"tested_on": "MDA-MB-231", "test": "Induction of apoptosis in human MDA-MB-231 cells assessed as PARP cleavage at 6 and 12 uM preincubated for 1 hr followed by photoirradiation by immunoblotting", "type": "functional, cell-based"}}, "note": "The source made the active and inactive calls. The rule behind the calls is not given here.", "data": [{"smiles": "O=S(=O)([O-])c1ccc(-c2c3cc(c(-c4ccc(S(=O)(=O)[O-])cc4)c4ccc([nH]4)c(-c4ccc(S(=O)(=O)[O-])cc4)c4nc(c(-c5ccc(S(=O)(=O)[O-])cc5)c5ccc2[nH]5)C=C4)N=C3)cc1.[Na+].[Na+].[Na+].[Na+]", "values": [{"measurement": "IC50", "setting": "[1]", "result": 25, "unit": "µM"}, {"measurement": "IC50", "setting": "[2]", "result": 20, "unit": "µM"}, {"measurement": "IC50", "setting": "[3]", "result": 13, "unit": "µM"}, {"measurement": "IC50", "setting": "[4]", "result": 11, "unit": "µM"}, {"measurement": "IC50", "setting": "[5]", "result": 8, "unit": "µM"}, {"measurement": "IC50", "setting": "[6]", "result": 8, "unit": "µM"}, {"measurement": "IC50", "setting": "[7]", "result": 12, "unit": "µM"}, {"measurement": "IC50", "setting": "[8]", "result": 6, "unit": "µM"}, {"measurement": "Activity", "setting": "[9]", "result": "Dose-dependent effect"}, {"measurement": "Activity", "setting": "[10]", "result": 61.8, "unit": "%"}, {"measurement": "Activity", "setting": "[11]", "result": 79.5, "unit": "%"}, {"measurement": "Activity", "setting": "[12]", "result": "Non-toxic"}, {"measurement": "Activity", "setting": "[13]", "result": "Non-toxic"}, {"measurement": "Activity", "setting": "[14]", "result": "Non-toxic"}, {"measurement": "Activity", "setting": "[15]", "result": "Non-toxic"}, {"measurement": "Activity", "setting": "[16]", "result": "Non-toxic"}, {"measurement": "Activity", "setting": "[17]", "result": "Non-toxic"}, {"measurement": "Activity", "setting": "[18]", "result": "Non-toxic"}, {"measurement": "Activity", "setting": "[19]", "result": "Non-toxic"}, {"measurement": "Ratio IC50", "setting": "[20]", "result": 5}, {"measurement": "Activity", "setting": "[21]", "result": 65.8, "unit": "%"}, {"measurement": "Activity", "setting": "[22]", "result": 83.9, "unit": "%"}, {"measurement": "Activity", "setting": "[23]", "result": "Non-toxic"}, {"measurement": "Activity", "setting": "[24]", "result": 72, "unit": "%"}, {"measurement": "Activity", "setting": "[25]", "result": 91, "unit": "%"}, {"measurement": "Activity", "setting": "[26]", "result": "Dose-dependent effect"}, {"measurement": "Activity", "setting": "[27]", "result": 69.7, "unit": "%"}, {"measurement": "Activity", "setting": "[28]", "result": 88.5, "unit": "%"}, {"measurement": "Activity", "setting": "[29]", "result": "Non-toxic"}, {"measurement": "Activity", "setting": "[30]", "result": "Active"}]}]}
